Reference: US11241410B2, “Method and compound for the treatment of covid-19” (priority 2020, dated 2022)
Values after ≈ are worked out from the molar mass of the structure shown. “Also recorded” adds a separate entry of the source. Read-outs that look alike come from different tables or passages of the source.

Tests used:
SARS-CoV-2 main protease = target: T1, SARS-CoV-2 main protease (Severe acute respiratory syndrome coronavirus 2, UniProt P0DTD1); conditions: auto dock; cited from earlier work
T1 construct: also MProtease (SARS-CoV-2 main protease)

HIV = HIV in vitro tests (Table 1); format: cell-based
COVID-19 = conditions: after one month; control arm 12.8%, difference not statistically significant; cited from earlier work
Huh7 = conditions: Huh7, 4 days, CellTiter Glo, reference compound; cited from earlier work
activated sludge = conditions: cited from earlier work
guinea pigs = conditions: intradermal and topical, listed as DEGD; cited from earlier work
intact rabbit skin = conditions: semi-occlusive, four hours, listed as DEGD; cited from earlier work
bacterial = conditions: with and without metabolic activation; cited from earlier work
[1] = cited from earlier work
[2] = rats, cited from earlier work
Pseudomonas putida = conditions: cited from earlier work
mouse lymphoma cells = conditions: with and without metabolic activation; cited from earlier work
Vero E6 cells = test: Toxicity in Vero E6 cells; format: cell-based
Procedure: Remdesivir was used as a control and verified that the assay was working. The first independent trial (done in quadruplicate) involved using the very first BTS compound sent to us, dissolved at 10 ug/ml in DMSO. Toxicity was observed ˜0.078 ug/ml ([…] based on the molecular weight we were given and the concentration of the drug). The dose curve (log (inhibitor) vs. response (three parameters)) yielded the nicest curve, but only reached a maximum of ˜20% protection. […] Twenty-two 2-fold dilutions of the drug starting from 10 ug/ml (˜323 uM).
FIG. 18 illustrates a graph showing 90I toxicity in Vero E6 cells, according to an exemplary embodiment of the present general inventive concept.

CHL cells = conditions: cited from earlier work
MDR-27221 HIV strain = test: microbe, parasite or virus in culture; format: cell-based, HIV-1
CEM-SS cells = test: Drug induced toxicity in CEM-SS cells; format: cell-based; conditions: Homo sapiens, read-out: 50% inhibitory concentration (IC50), drug induced toxicity, high-test concentration 100 ug/ml
[3] = Table 10 summary; cited from earlier work
Eisenia foetida = conditions: cited from earlier work
[4] = test system: Seleneastrum capricornutum; conditions: in vivo; cited from earlier work
rats [5] = conditions: cited from earlier work
[6] = cited from earlier work; remark: listed apart in the source
[7] = 28 days; cited from earlier work
gamma interferon = test: Production of gamma interferon by cells; format: cell-based; conditions: compared with positive control PMA-Ionomycin combination
From the text: FIG. 4 illustrates a graph showing production of gamma interferon by cells receiving 90I compared to other drugs, according to an exemplary embodiment of the present general inventive concept.
Referring to FIG. 4, furthermore, 90I has proven to stimulate the production of gamma interferon (i.e. a dimerized soluble cytokine that is the only member of the type II class of interferons and is a product of human leukocytes and human lymphocytes). More specifically, […] and differentiate into tissue macrophages, such that each of the tissue macrophages may serve as a vehicle for transporting viruses to a variety of tissues. The ability of antiretroviral agents to cross the blood brain barrier is one important consideration, since the brain acts as a sanctuary for viruses as well as a site for disease progression.
Referring again to FIG. 4, activated CD8+ cells are reported to produce high levels of gamma interferon, which may be involved in the anti-HIV-1 immune responses, contributing to both control of viral spread and concomitant lymphoid follicular lyses. […] This finding may have a far-reaching implication and relevant to interleukin 12 (IL-12) (i.e. a cytokine that is produced by activated antigen-presenting cells, such as dendritic cells and/or macrophages). […]

Pimephales promelas = conditions: acute, 96 h; cited from earlier work
Daphnia = conditions: in vivo; cited from earlier work
[8] = test system: ovariectomized adult Spraque-Dawley (CD) rats; conditions: 500-2000 mg/kg/day for 7 days, oral gavage, up to maximally tolerated dose; cited from earlier work
eye of the rabbit = conditions: single instillation, listed as DEGD; cited from earlier work
rats [9] = conditions: OECD 401; cited from earlier work
SARS-CoV-2 = test: microbe, parasite or virus in culture; format: cell-based
rat = conditions: cited from earlier work
[10] = test system: RF laboratory strain of HIV-1; test: Antiviral drug assay in CEM-SS cells; format: cell-based; conditions: Human immunodeficiency virus 1, CEM-SS, read-out: 50% effective concentration (EC50)
rats [11] = conditions: cited from earlier work; remark: listed apart in the source
dogs = conditions: up to 300 mg/kg/day for 90 days; cited from earlier work
Mpro = target: T2, Mpro (Severe acute respiratory syndrome coronavirus 2, UniProt P0DTD1); conditions: Mpro and substrate, 40 min, 384 well; cited from earlier work
T2 construct: also MProtease (SARS-CoV-2 main protease)

HCoV = conditions: Huh7, 4 days, 96 well, reference compound; cited from earlier work
[12] = HIV in vitro tests, read-out: EC50
[13] = from ppm by standard conversion factors
[14] = Severe acute respiratory syndrome coronavirus 2, preliminary, first independent trial

In the case of `CCOC(=O)c1c(CSc2ccccc2)n(C)c2cc(Br)c(O)c(CN(C)C)c12` [Umifenovir], the “Dissociation Constant” value (SARS-CoV-2 main protease) is listed as 2.2E−05, the SMINA score (SARS-CoV-2 main protease) is listed as −6.0 and the Vina score (SARS-CoV-2 main protease) is listed as −6.4.
Work on `CC(C)(C)NC(=O)[C@@H]1C[C@@H]2CCCC[C@@H]2CN1C[C@@H](O)[C@H](Cc1ccccc1)NC(=O)[C@H](CC(N)=O)NC(=O)c1ccc2ccccc2n1` [Saquinovir] yielded an EC50 (HIV; [12]) of 1.2 nM.
In the case of `CCN(CCO)CCCC(C)Nc1ccnc2cc(Cl)ccc12` (centres unmarked) [Hydroxychloroquine], the “Dissociation Constant” value (SARS-CoV-2 main protease) is given as 2.3E−05, the SMINA score (SARS-CoV-2 main protease) is given as −6.4 and the Vina score (SARS-CoV-2 main protease) is given as −6.0.
In the case of `CCN(CC)CCCC(C)Nc1ccnc2cc(Cl)ccc12` (centres unmarked) [Chloroquine], the “Dissociation Constant” value (SARS-CoV-2 main protease) is listed as 5.0E−05, the SMINA score (SARS-CoV-2 main protease) is listed as −5.4 and the Vina score (SARS-CoV-2 main protease) is listed as −5.9.
`Nc1ccn([C@H]2CC[C@@H](CO)O2)c(=O)n1` [ddc] showed an EC50 (HIV; [12]) of 1 nM.
`CC(C)(C)NC(=O)[C@@H]1CN(Cc2cccnc2)CCN1C[C@@H](O)C[C@@H](Cc1ccccc1)C(=O)N[C@H]1c2ccccc2C[C@H]1O` [Indinivir] showed an EC50 (HIV; [12]) of 5 nM.
For `CC(C)c1nc(CN(C)C(=O)N[C@@H](CCN2CCOCC2)C(=O)N[C@H](CC[C@H](Cc2ccccc2)NC(=O)OCc2cncs2)Cc2ccccc2)cs1` [Cobicistat], the “Dissociation Constant” value (SARS-CoV-2 main protease) is given as 5.7E−06, the SMINA score (SARS-CoV-2 main protease) is given as −7.2 and the Vina score (SARS-CoV-2 main protease) is given as −7.2.
For `CCC(CC)COC(=O)[C@H](C)N[P@](=O)(OC[C@H]1O[C@@](C#N)(c2ccc3c(N)ncnn23)[C@H](O)[C@@H]1O)Oc1ccccc1` [Remdesivir], the “patients who had died” value (COVID-19) is given as 13.9% and the CC50 (Huh7) is given as 29000 nM.
Compound `O=c1[nH]cnc2c1ncn2[C@H]1CC[C@@H](CO)O1` [ddI] has an EC50 (HIV; [12]) of 5.6 nM.
For `O=C(OCCOCCOC(=O)c1ccccc1)c1ccccc1` [90I, diethylene glycol dibenzoate], the “NOEC, activated sludge” value (activated sludge; Table 11) is given as “NOEC ≥100 mg/L,”, the activated sludge respiration (activated sludge; at 100 mg/L) is given as “not inhibited” and the EC50 (HIV; Human immunodeficiency virus 1) is given as 0.3 nM. The Sensitisation (guinea pigs) was “No allergic skin reaction and Not”, the Skin irritation (intact rabbit skin) was “No dermal reaction and No” and the “mutagenic potential, bacterial” value (bacterial) was “did not demonstrate mutagenic potential”. For the same compound, the Water solubility [1] was 193 µg/mL, the “time within which almost all of the dose was adsorbed, metabolized and excreted in the urine” value ([2]; single oral doses of 50 and 750 mg/kg) was no more than 24 h and the metabolic pathway ([2]; single oral doses) was “hydrolysis of the ester bonds to benzoic acid”. The “EC50 (P. putida)” value (Pseudomonas putida; Table 11) was “EC50 >10 mg/L”, the “inhibitory effect (1050)” value (Pseudomonas putida; highest testable concentration 10 mg/L) was greater than 10 mg/L and the “mutagenic potential, mammalian cell” value (mouse lymphoma cells) was “did not demonstrate mutagenic potential”. For the same compound, the “concentration at which toxicity was observed” value (Vero E6 cells; Vero E6, converted with molecular weight given) was roughly 2500 nM, the “concentration at which toxicity was observed” value (Vero E6 cells; Vero E6, first independent trial, quadruplicate) was roughly 78 ng/mL and the clastogenic activity (CHL cells) was “No response considered to be indicative of clastogenic”. For the same compound, the EC50 (MDR-27221 HIV strain; Human immunodeficiency virus 1) was 3 µg/mL (≈ 9.54 µM), the “inhibition of the MDR strain” value (MDR-27221 HIV strain; MDR-27221) was “strong inhibitory activity” and the IC50 (CEM-SS cells) was greater than 100 µg/mL. For the same compound, the Genotoxicity [3] was “Negative”, the “LC50 (14 d), earthworm” value (Eisenia foetida; 14 d, Table 11) was “d) >1,000 mg/kg” and the “acute toxicity to earthworm” value (Eisenia foetida; 14 days) was “greater than 1,000 ppm”. The “growth rate-based EC50 for algae” value [4] was 11 µg/mL, the “Reproductive toxicity, R” value (rats [5]; Table 10 summary) was “R: No” and the “NOAEL for the FO and FI parent animals” value (rats [5]; [13]) was 500 mg/kg bw/day. The “NOAEL for the developing offspring” value (rats [5]; [13]) was 165 mg/kg bw/day, the “NOEL for reproductive parameters” value (rats [5]; [13]) was 500 mg/kg bw/day and the “NOAEL for the FO and FI parent animals, dietary concentration” value (rats [5]; rats, 2-generation, diet) was 10,000 ppm. For the same compound, the “NOAEL for the developing offspring, dietary concentration” value (rats [5]; rats, 2-generation, diet) was 3,300 ppm, the “NOEL for reproductive parameters, dietary concentration” value (rats [5]; rats, 2-generation, diet) was 10,000 ppm and the “Log P” value [6] was 3.04. The biodegradation [7] was 93 % of ThOD, the “amount of gamma interferon produced” value (gamma interferon) was “equivalent to that of the positive control” and the LC50 to fish (Pimephales promelas) was 3.9 µg/mL (≈ 12.4 µM). The “EC50 for Daphnia” value (Daphnia) was 6.7 µg/mL, the estrogenic activity [8] was “did not exhibit estrogenic activity” and the Eye irritation (eye of the rabbit) was “transient very slight conjunctival irritation only; also recorded: Slight”. For the same compound, the “LD50, oral” value (rats [9]) was 4,198 mg/kg bw, the EC50 (SARS-CoV-2; [14]) was 4100 nM and the IC50 (SARS-CoV-2; [14]) was 2.8 nM. The maximum protection (SARS-CoV-2; dose curve log(inhibitor) vs. response, SARS-CoV-2 infected cells) was roughly 20%, the “Repeat dose, NOAEL” value (rat; Table 10 summary) was 1,000 mg/kg bw/day and the NOAEL (rat; rat, thirteen week, diet) was 1,000 mg/kg bw. For the same compound, the EC50 [10] was 0.02 µg/mL (≈ 0.0636 µM), the Maternal toxicity (rats [11]; Table 10 summary) was 1,000 mg/kg bw/day and the “Reproductive toxicity (NOEL)” value (rats [11]; Table 10 summary) was 250 mg/kg bw/day. For the same compound, the “Reproductive toxicity NOAEL” value (rats [11]; Table 10 summary) was 500 mg/kg bw/day, the “Reproductive toxicity, D” value (rats [11]; Table 10 summary) was “D: Yes” and the “NOAEL for prenatal development” value (rats [11]; rats, diet) was 500 mg/kg/day. The “NOEL for fetal growth and development” value (rats [11]; rats, diet) was 250 mg/kg/day, the “NOEL for maternal toxicity” value (rats [11]; rats, diet) was 1,000 mg/kg/day and the “effects of dietary administration” value (dogs) was “No effects”.
Work on `Cc1ccnc2c1NC(=O)c1cccnc1N2C1CC1` [Neverepin] yielded an EC50 (HIV; [12]) of 48 nM.
In the case of `CC(C)c1nc(CN(C)C(=O)N[C@H](C(=O)N[C@@H](Cc2ccccc2)C[C@H](O)[C@H](Cc2ccccc2)NC(=O)OCc2cncs2)C(C)C)cs1` [Ritonavir], the “Dissociation Constant” value (SARS-CoV-2 main protease) is given as 2.5E−06, the SMINA score (SARS-CoV-2 main protease) is given as −7.7 and the Vina score (SARS-CoV-2 main protease) is given as −7.5.
For `Cc1cccc(C)c1OCC(=O)N[C@@H](Cc1ccccc1)[C@@H](O)C[C@H](Cc1ccccc1)NC(=O)[C@H](C(C)C)N1CCCNC1=O` [Lopinavir], the EC50 (Mpro) is given as 108000 nM, the “Dissociation Constant” value (SARS-CoV-2 main protease) is given as 3.4E−06 and the SMINA score (SARS-CoV-2 main protease) is given as −7.5. The Vina score (SARS-CoV-2 main protease) was −7.4.
For `CCOC(=O)C1=C[C@@H](OC(CC)CC)[C@H](NC(C)=O)[C@@H](N)C1` [Oseltamivir], the “Dissociation Constant” value (SARS-CoV-2 main protease) is listed as 1.8E−05, the SMINA score (SARS-CoV-2 main protease) is listed as −6.3 and the Vina score (SARS-CoV-2 main protease) is listed as −6.5.
In the case of `CCN(CC)CCCC(C)Nc1ccnc2cc(Cl)ccc12` (centres unmarked) [Chloroquine phosphate], the CC50 (Huh7) is given as 40800 nM and the EC50 (HCoV) is given as 3450 nM.
For `CC(C)c1nc(CN(C)C(=O)N[C@H](C(=O)N[C@@H](Cc2ccccc2)C[C@H](O)[C@H](Cc2ccccc2)NC(=O)OCc2cncs2)C(C)C)cs1` [Retinovir], the EC50 (HIV; [12]) was 2 nM.
